In US20100267712A1, “ISOINDOLINE COMPOUNDS FOR THE TREATMENT OF SPINAL MUSCULAR ATROPHY AND OTHER USES” (The United States of America, as represented by the …, priority 2007, published 2010):

Test system: SMN2-linked luciferase-reporter gene construct
Experiment: SMN Splice Reporter Assay (SMN2-linked luciferase reporter)
Format: cell-based
Settings: for EC50: cervical carcinoma cell lines, SMN2 splice luciferase reporter; for Fold Increase: fold-increase of luciferase over baseline reading of transformed cells without any test compound
Description: As previously discussed, SMN1 is the gene deleted in SMA patients; the SMN2 gene remains intact in both SMA and normal patients. Therefore, SMN2 provides a potential means of increasing SMN production in SMA patients and is, thus, a target for developing SMA treatments. SMN2 is identical to SMN1 with the exception of a single base pair change that results in reduced expression of the gene. The reduction is based on the creation of an alternatively spliced RNA that produces an unstable protein carrying a deletion of exon 7. Both full length SMN and exon 7 deleted SMN are produced by the SMN2 gene via alternative RNA splicing, but the major product is the unstable deleted form.
Cervical carcinoma cell lines were transformed with a SMN2-linked luciferase-reporter gene construct. The reporter is designed to detect shifts in the alternative splicing of SMN2 sequences. In particular, the reporter is constructed as a fusion of the alternatively spliced sequences of the SMN2 gene and the luciferase gene. Luciferase sequences are in the correct translational reading frame only when the SMN2 sequences are spliced according to the normal SMN1 mechanism (e.g., splicing to include exon 7), which allows for translation of the stable SMN protein. Compounds were tested in the assay by administering the compound to the cell line and detecting an increase in the luciferase activity. The assay is described in greater detail in Zhang et al., Gene Ther., 8: 1532-8 (2001). Compounds were administered as described in Lunn et al, Chem. & Biol, 11: 1489-1493 (2004).
The results are reported as a fold-increase over a baseline reading of transformed cells without any test compound. The EC50 value also is reported in Table 1 for some exemplary compounds of the invention.

Structure (SMILES) | EC50 [nM] | Fold Increase
COc1ccc2c(c1)C(=O)N(c1ccc3ccc(C)nc3c1)C2 [Example 124430] | 46 | 1.411
COc1ccc2c(c1)C(=O)N(c1ccc3ccc(N(C)C)nc3c1)C2 [Example 123937] |  | 1.202
COc1ccc2c(c1)C(=O)N(c1ccc3scnc3c1)C2 [Example 120785] | 59 | 1.353
COc1ccc(-c2ccc3c(c2)C(=O)N(c2ccc4ccn(C)c4c2)C3)cc1 [Example 122315] |  | 1.091
COc1ccc2c(c1)C(=O)N(c1ccc3c(c1)NC(=O)CO3)C2 [Example 119516] |  | 1.182
Cc1cc2ccc(N3Cc4ccc(-c5cccnc5)cc4C3=O)cc2n1C [Example 125093] |  | 1.082
COc1ccc2c(c1)C(=O)N(c1cnc3[nH]ccc3c1)C2 [Example 121078] |  | 1.246
Cc1cc2cc(N3Cc4ccc(OC5CCCC5)cc4C3=O)ccc2n1C [Example 123938] |  | 1.2
COc1ccc2c(c1)C(=O)N(c1ccc3ccn(C(C)C)c3c1)C2 [Example 120283] |  | 1.273
COc1cccc2c1CN(c1ccc3sccc3c1)C2=O [Example 121509] | 3710 | 1.564
CC(C)Oc1ccc2c(c1)C(=O)N(c1ccc3cc[nH]c3c1)C2 [Example 125095] | 3 | 1.134
COc1cccc2c1CN(c1ccc3ccsc3c1)C2=O [Example 121513] | 749 | 1.612
COc1ccc2c(c1)C(=O)N(c1ccc3c(OC)ccnc3c1)C2 [Example 123712] | 147 | 1.38
COc1ccc2c(c1)C(=O)N(c1ccc3nccc(C)c3c1)C2 [Example 123589] | 78 | 1.541
COc1ccc2c(c1)C(=O)N(c1ccc3nc(N(C)C)ncc3c1)C2 [Example 122039] | 7120 | 1.459
CCCOc1ccc2c(c1)C(=O)N(c1ccc3c(c1)cc(C)n3C)C2 [Example 123715] | 145 | 1.216
COc1ccc2c(c1)C(=O)N(c1ccc3ccc(Cl)nc3c1)C2 [Example 123710] | 47 | 1.327
CCCCc1ccc2c(c1)C(=O)N(c1ccc3c(c1)cc(C)n3C)C2 [Example 123331] | 660 | 1.31
CC(=O)Nc1ccc2c(c1)C(=O)N(c1ccc3cc[nH]c3c1)C2 [Example 125269] | 15 | 1.416
Cc1ccc2c(c1)CN(c1ccc3ccn(C)c3c1)C2=O [Example 120434] | 54 | 1.708
Cn1ccc2cc(N3Cc4ccc(NC(=O)c5ccccc5)cc4C3=O)ccc21 [Example 124862] |  | 1.07
COc1ccc2c(c1)C(=O)N(c1ccc3c(c1)NCCN3)C2 [Example 121921] | 217 | 1.365
CCCCOc1ccc2c(c1)C(=O)N(c1ccc3c(c1)cc(C)n3C)C2 [Example 124035] |  | 1.118

Structure (SMILES) | EC50 [nM] | Fold Increase
Cn1ccc2cc(N3Cc4cccc([N+](=O)[O-])c4C3=O)ccc21 [Example 120428] | 338 | 1.262
COc1ccc2c(c1)C(=O)N(c1ccc3ccn(CCNC(C)=O)c3c1)C2 [Example 121083] |  | 1.083
Cn1ccc2ccc(N3Cc4cc(N)ccc4C3=O)cc21 [Example 121257] | 175 | 1.856
Cc1cc2ccc(N3Cc4ccc(O)cc4C3=O)cc2n1C [Example 124984] |  | 1.401
Cc1cccc2c1CN(c1ccc3ccn(C)c3c1)C2=O [Example 120953] | 1160 | 1.495
CN(C)c1ccc2c(c1)C(=O)N(c1ccc3cc[nH]c3c1)C2 [Example 125600] | 4 | 1.405
O=C1c2cc3c(cc2CN1c1ccc2sccc2c1)OCCO3 [Example 118900] | 66 | 1.399
CN(C)c1ccc2c(c1)C(=O)N(c1ccc3ccsc3c1)C2 [Example 122038] | 38 | 1.592
CCc1ccc2c(c1)C(=O)N(c1ccc3c(c1)cc(C)n3C)C2 [Example 123016] | 197 | 1.481
CCc1ccc2c(c1)C(=O)N(c1ccc3sccc3c1)C2 [Example 122684] | 57 | 1.665
Cc1cc2ccc(N3Cc4ccc(-c5ccccc5)cc4C3=O)cc2n1C [Example 124978] |  | 1.115
CC(=O)Nc1ccc2c(c1)C(=O)N(c1ccc3c(c1)cc(C)n3C)C2 [Example 124034] | 440 | 1.494
COc1ccc2c(c1)C(=O)N(c1ccc3scc(Br)c3c1)C2 [Example 122434] | 378 | 1.718
COc1ccc2c(c1)C(=O)N(c1ccc3ncoc3c1)C2 [Example 121262] | 336 | 1.317
Cn1ccc2ccc(N3Cc4cc5c(cc4C3=O)OCCO5)cc21 [Example 118902] | 29 | 1.774
COc1ccc2c(c1)C(=O)N(c1ccc3nc(OC)ccc3c1)C2 [Example 123333] | 20 | 1.376
COc1ccc2c(c1)CN(c1ccc3ccsc3c1)C2=O [Example 121511] | 113 | 1.808
COc1ccc2c(c1)C(=O)N(c1ccc3ocnc3c1)C2 [Example 120957] |  | 1.254
COc1cc2c(cc1OC)C(=O)N(c1ccc3c(ccn3C)c1)C2 [Example 120789] | 9790 | 1.427
Cc1cc2cc(N3Cc4ccc(Br)cc4C3=O)ccc2n1C(C)C [Example 125385] |  | 1.454
COc1ccc2c(c1)C(=O)N(c1ccc(C(C)C)cn1)C2 [Example 119654] | 235 | 1.44
O=C1c2ccccc2CN1c1ccc2c(c1)CCC2 [Example 116070] | 67 | 1.445
O=C1c2cc(Br)ccc2CN1c1ccc2ccsc2c1 [Example 122557] |  | 1.383

Structure (SMILES) | EC50 [nM] | Fold Increase
Cn1ccc2ccc(N3Cc4ccc(N)cc4C3=O)cc21 [Example 121256] | 1590 | 1.638
COc1ccc2c(c1)C(=O)N(c1ccc3ccn(C(C)=O)c3c1)C2 [Example 121260] | 35 | 1.414
COc1cccc2c1CN(c1ccc3c(ccn3C)c1)C2=O [Example 119865] | 842 | 1.444
Cn1ccc2ccc(N3Cc4cccc(N)c4C3=O)cc21 [Example 120429] | 152 | 1.745
Cc1cccc2c1CN(c1ccc3c(ccn3C)c1)C2=O [Example 120952] | 414 | 1.374
COc1ccc2c(c1)C(=O)N(c1ccc(C)nc1)C2 [Example 118735] |  | 1.149
COc1ccc2c(c1)C(=O)N(c1ccc3c(c1)cc(C(C)C)n3C)C2 [Example 124773] |  | 1.255
COc1ccc2c(c1)CN(c1ccc3c(ccn3C)c1)C2 [Example 122183] | 593 | 1.518
CN1CCCc2cc(N3Cc4ccc(OC(F)F)cc4C3=O)ccc21 [Example 122319] | 203 | 1.97
CCC(C)c1ccc2c(c1)C(=O)N(c1ccc3c(c1)cc(C)n3C)C2 (stereo not shown) [Example 123329] | 569 | 1.327
CCCCOc1ccc2c(c1)C(=O)N(c1ccc3c(ccn3C)c1)C2 [Example 121922] | 225 | 1.301
Cn1ccc2ccc(N3Cc4c(Cl)cccc4C3=O)cc21 [Example 120788] |  | 1.25
Cn1ccc2ccc(N3Cc4ccc(N5CCCCC5)cc4C3=O)cc21 [Example 124650] | 96 | 1.684
CC(=O)Nc1cccc2c1CN(c1ccc3ccn(C)c3c1)C2=O [Example 121075] |  | 1.087
O=C1c2ccccc2CN1c1ccc(Br)nc1 [Example 112649] | 18200 | 1.373
CN1CCN(c2ccc3c(c2)C(=O)N(c2ccc4c(ccn4C)c2)C3)CC1 [Example 123588] |  | 1.183
COc1ccc2c(c1)CN(c1ccc3sccc3c1)C2=O [Example 121643] | 45 | 1.778
Cc1cccc2c1C(=O)N(c1ccc3ccn(C)c3c1)C2 [Example 120279] | 242 | 1.784
COc1ccc2c(c1)C(=O)N(c1ccc3c(c1)ncn3C)C2 [Example 120291] | 111 | 1.362
Cn1ccc2cc(N3Cc4ccc(OC(F)(F)Br)cc4C3=O)ccc21 [Example 122431] | 220 | 1.552
Nc1ccc2c(c1)C(=O)N(c1ccc3ccsc3c1)C2 [Example 122036] | 347 | 1.827
Cc1cc2cc(N3Cc4ccc(N(C)C)cc4C3=O)ccc2n1C(C)C [Example 125602] |  | 1.139
